≈ marks a conversion by molar mass, not a printed value. Where a name gives a salt, the structure may show the parent alone.
Key:
physchem [1] = details: octan-1-ol/water
in vitro [2] = details: SD, HW or BN, rat, plasma
in vitro [3] = details: human, plasma
physchem [4] = details: pH 7.4 buffer

Structure (SMILES) | fraction unbound at 5 h (in vitro [2]) | fraction unbound at 5 h (in vitro [3]; PPB) | other results
COCCNCc1cccc(CCNC[C@H](O)c2ccc(O)c3[nH]c(=O)sc23)c1 | 0.197 | – | logD (physchem [1]; pH 7.4, LogD7.4): 0.01
O=C(c1ccc(-c2ccc(Cl)cc2)o1)N(Cc1ccccn1)c1ccc(N2CCNCC2)cc1 | 0.0219 | – | logD (physchem [1]; pH 7.4, LogD7.4): 3
O=C(NCc1ccc(OC(F)(F)F)cc1)C1c2cccc(O)c2C(=O)N1CCc1ncc(F)cn1 (stereo unspecified) | 0.0418 | 0.0179 | –
COc1ncc(-c2cccc(C#N)c2CCNC(=O)c2ccc(OCCC(F)(F)F)nc2)cn1 | 0.139 | 0.119 | –
O=C(NCc1ccc(F)c(C(F)(F)F)c1)C1c2ccccc2C(=O)N1CCc1ncc(F)cn1 (stereo unspecified) | 0.129 | 0.0477 | –
CC(C)(C)C(NC(=O)c1ccccc1)C(=O)c1ccc(Cl)cc1 (stereo unspecified) | 0.0081 | 0.006 | –
COc1ncc(-c2c(C)ccc(F)c2CCNC(=O)c2ccc(OCC(F)(F)F)nc2)cn1 | 0.0437 | 0.002 | –
Nc1nc(-c2nn(Cc3ccccc3F)c3ncccc23)nc(N)c1N1CCOCC1 | 0.117 | – | fraction unbound at 5 h (in vitro [3]): 0.0768
COc1cc(-n2cnc3cc(-c4ccc(Cl)cc4)sc3c2=O)ccc1OCCN1CCCC1 | 0.0099 | – | logD (physchem [1]; pH 7.4, LogD7.4): 2.74
Cc1onc(-c2ccccc2)c1C(=O)N(C)c1ccc(Cl)cc1 | 0.0752 | 0.0418 | –
COCCCC/C(=N\OCCN)c1ccc(C(F)(F)F)cc1 [FLUVOXAMINE MALEATE] | 0.224 | 0.266 | –
CN(c1ccccc1)S(=O)(=O)c1ccc(NC(=O)C(C)(O)C(F)(F)F)cc1 (stereo unspecified) | 0.024 | 0.0229 | –
CC(C)C(NC(=O)c1ccccc1)C(=O)c1ccc([N+](=O)[O-])cc1 (stereo unspecified) | 0.069 | 0.0418 | –
CC(C)NCC(O)COc1cccc2[nH]ccc12 (stereo unspecified) [PINDOLOL] | 0.586 | – | logD (physchem [1]; pH 7.4): -0.12
CCC[C@@H](c1ccc(C(=O)O)c(Oc2cccc(Cl)c2)c1)N1CCC[C@H](n2cc(C)c(=O)[nH]c2=O)C1 | 0.0179 | 0.007 | –
COc1ccc(C2CNC(=O)C2)cc1OC1CCCC1 (stereo unspecified) [ROLIPRAM] | 0.329 | 0.173 | –
O=C(CC(c1ccccc1)c1ccccc1)N1CCN(C(c2ccccc2)c2ccccc2)CC1 [Z160] | 0.5 | 0.001 | –
COc1ccc(-c2c(C(=O)N3CCC[C@H]3CO)cc3cccnn23)cc1 | 0.262 | 0.11 | –
CCOc1ccc([C@@H](C)Nc2nc(N3CCN(C(C)=O)CC3)nc3c2CN(C(C)C)C3=O)cc1F | 0.258 | 0.334 | –
CC(C)Oc1cc(Nc2nc(N[C@@H](C)c3ccc(F)cc3)nc(NC(CO)CO)c2Cl)n[nH]1 | 0.0428 | 0.0358 | –
COCCNCC(=O)NC12CC3CC(CC(C3)C1)C2 | 0.483 | 0.5 | –
O=C(O)CNC(=O)c1ncccc1O | 0.24 | 0.232 | –
O=C(NCc1cccc(OC(F)(F)F)c1)C1c2ccccc2C(=O)N1CCc1ncc(F)cn1 (stereo unspecified) | 0.179 | 0.0447 | –
O=C(N[C@@H]1COc2cccc(-c3ccc(CO)nc3)c2C1)c1ccc(OCCOCC(F)(F)F)nc1 | 0.089 | 0.0409 | –
Cc1onc(-c2c(Cl)cccc2Cl)c1CC(=O)NCc1ccc(OCC(F)(F)F)nc1 | 0.0457 | 0.009 | –

Structure (SMILES) | fraction unbound at 5 h (in vitro [2]) | fraction unbound at 5 h (in vitro [3]; PPB) | other results
CC(C)(C)[C@@H](O)C(=O)N1CCC[C@H]1C(=O)NCc1cc(Cl)ccc1CN | 0.5 | 0.58 | –
CC(O)(C(=O)Nc1ccc(S(=O)(=O)N2CCOCC2)cc1)C(F)(F)F (stereo unspecified) | 0.151 | 0.371 | –
Cc1nc(C(C)C)c(C(N)=O)nc1-c1ccc([C@H]2CC[C@H](CC(=O)O)CC2)cc1 | 0.0119 | 0.0262 | –
COC[C@H](C)Oc1cc(O[C@@H](C)Cc2ccccc2)cc(C(=O)Nc2ccc(C(=O)O)cn2)c1 | 0.0042 | – | logD (physchem [1]; pH 7.4, LogD7.4): 1.5; solubility thermodynamic (physchem [4]): 1480 µM (≈ 687 µg/mL)
CN(C)CCC1CCN(c2cc(C(=O)NC[C@H]3CC[C@H](CNC(=O)OC4CCOCC4)CC3)c3ccccc3n2)CC1 | 0.262 | 0.179 | –
O=S(=O)(Nc1nncs1)c1cc(Cl)c(Oc2ccc(C(F)(F)F)cc2-c2ccnnc2)cc1F [PF-05186462] | 0.02 | – | logD (physchem [1]; pH 7.4, LogD7.4): 1.15
O=C(NCc1ccc(OC(F)(F)F)cc1)C1c2ccccc2C(=O)N1CCc1ncc(F)cn1 (stereo unspecified) | 0.0928 | 0.0477 | –
Cc1nc2ccc(NS(=O)(=O)c3ccc4c(c3)OCCO4)cc2s1 | 0.0067 | 0.0033 | –
CC(C)C(NC(=O)c1ccccc1)C(=O)c1ccc(F)cc1 (stereo unspecified) | 0.0836 | 0.0499 | –
Cc1ccc(NC(=O)c2cccc(N3CCOCC3)c2)cc1-n1cnc2ccc(N3CCN(C)CC3)cc2c1=O | 0.103 | – | logD (physchem [1]; pH 7.4, LogD7.4): 2.69; solubility thermodynamic (physchem [4]): 427 µM (≈ 230 µg/mL)
O=C(c1cc(Cc2n[nH]c(=O)c3ccccc23)ccc1F)N1CCCNCC1 | 0.597 | – | logD (physchem [1]; pH 7.4, LogD7.4): 0.1
N#Cc1ccc2[nH]c(-c3ccc(F)cc3)c(CCCC(=O)NS(=O)(=O)C(F)(F)F)c2c1 | 0.0661 | – | solubility thermodynamic (physchem [4]): 309 µM (≈ 140 µg/mL)
COc1ccc(CN2CCc3c([nH]c4ccccc34)C2)cc1OC | 0.0418 | – | logD (physchem [1]; pH 7.4, LogD7.4): 3.1; solubility thermodynamic (physchem [4]): 51.3 µM (≈ 16.5 µg/mL)
CC(CN1c2ccccc2Sc2ccccc21)N(C)C (stereo unspecified) [PROMETHAZINE] | 0.0705 | – | logD (physchem [1]; pH 7.4, LogD7.4): 2.67
O=c1[nH]c2c(O)ccc([C@@H](O)CNCCCOCCOCCc3ccccc3)c2s1 | 0.465 | – | logD (physchem [1]; pH 7.4, LogD7.4): 1.09
CNC(=O)c1ccc(Oc2ccc3c(c2)CCN(C2CCC2)CC3)nc1 [GSK189254] | 0.523 | – | logD (physchem [1]; pH 7.4, LogD7.4): 1.45
C[C@@H]1c2c([nH]c3ccc(C(F)(F)F)cc23)C[C@@H]2CCN(CCN3CCOCC3)C[C@H]21 | 0.0313 | – | logD (physchem [1]; pH 7.4, LogD7.4): 2.87
Nc1nc2ccc(C(=O)c3ccccc3)cc2[nH]1 | 0.0736 | – | logD (physchem [1]; pH 7.4, LogD7.4): 2.29
C[C@@H](O[C@H]1OCCN(Cc2n[nH]c(=O)[nH]2)[C@H]1c1ccc(F)cc1)c1cc(C(F)(F)F)cc(C(F)(F)F)c1 [APREPITANT] | 0.0023 | – | –
CC(=O)N1CCN(c2nc(N[C@H](C)c3cnc4ccccc4c3)c3c(n2)C(=O)N(C(C)C)C3)CC1 | 0.0119 | – | –
CC[C@H](NC(=O)c1c(O)c(-c2ccccc2)nc2ccccc12)c1ccccc1 [TALNETANT] | 0.0005 | – | logD (physchem [1]; pH 7.4, LogD7.4): 3.91
COc1cc2c(cc1OC)CN(CCc1ccc(NC(=O)c3cccc4c(=O)c5cccc(OC)c5[nH]c34)cc1)CC2 | 0.0179 | – | –
O=C(Nc1cccc(Cl)c1)Nc1nnc(-c2ccncc2)s1 | 0.0046 | – | –
Cc1c(-c2cc3ccccc3o2)oc(=O)c(C)c1O | 0.0026 | – | –
O=C(NCC1CCC1)c1nc(OCCOCCO)ccc1NC(=O)c1ccnc2ccccc12 | 0.03 | – | –

Structure (SMILES) | fraction unbound at 5 h (in vitro [2]) | fraction unbound at 5 h (in vitro [3]; PPB) | other results
OCCNC(=S)NCc1cccc(Cl)c1F | 0.16 | – | –
Cc1nc2ccc(NS(=O)(=O)c3ccc(C)c(C)c3)cc2s1 | 0.0024 | – | –
O=C(Cc1ccc(F)c(C(F)(F)F)c1)Nc1cccc2c(=O)n([C@@H]3CNC[C@H]3O)ccc12 | 0.0948 | – | logD (physchem [1]; pH 7.4, LogD7.4): 1.33
CCc1nn(C2CCCC2)c2c1CCn1c(-c3cccs3)nnc1-2 [TOFIMILAST] | 0.0477 | – | solubility thermodynamic (physchem [4]): 22.4 µM (≈ 7.6 µg/mL)
CC(C)C[C@H](CN)CC(=O)O [PREGABALIN] | 0.5 | – | –
CN(C)CCOC1CN(c2cc(C(=O)NC[C@H]3CC[C@H](CNC(=O)OC(C)(C)C)CC3)c3ccccc3n2)C1 | 0.129 | – | –
O=C(O)Cc1cn(-c2ccccc2)nc1-c1ccc(Cl)cc1 [LONAZOLAC] | 0.0018 | – | –
C[S+]([O-])Cc1ccc(C(=O)Nc2cccnc2C(=O)NCC2CCOCC2)c2ccccc12 (stereo unspecified) | 0.154 | – | –
CC(C)(C)OC(=O)NC[C@H]1CC[C@H](CNC(=O)c2cc(N3CCC(CCN)CC3)nc3ccccc23)CC1 | 0.0321 | – | –
NCCCCN(Cc1nc2ccccc2[nH]1)[C@H]1CCCc2cccnc21 [MAVORIXAFOR] | 0.244 | – | –
NCCCCN(Cc1nc2ccccc2[nH]1)C1CCCc2cccnc21 (stereo unspecified) | 0.371 | – | logD (physchem [1]; pH 7.4, LogD7.4): 0.83
Cc1nc(C(F)(F)F)ccc1C(=O)Nc1ccc(Cl)c(-c2nc3ccccc3[nH]2)c1 | 0.0948 | – | –
CN(C(=O)Cc1ccc(S(C)(=O)=O)cc1)C1CCN(Cc2ccc(C(F)(F)F)cc2)CC1 | 0.16 | – | solubility thermodynamic (physchem [4]): 363 µM (≈ 170 µg/mL)
CC(C)(C)OC(=O)N1CCC(OCc2nc(-c3ccncc3)no2)CC1 | 0.0752 | – | logD (physchem [1]; pH 7.4, LogD7.4): 3; solubility thermodynamic (physchem [4]): 269 µM (≈ 97 µg/mL)
CCC(C)(C)C(=O)O[C@H]1C[C@@H](C)C=C2C=C[C@H](C)[C@H](CC[C@@H](O)C[C@@H](O)CC(=O)O)[C@H]21 [TENIVASTATIN] | 0.024 | – | logD (physchem [1]; pH 7.4, LogD7.4): 1.55
O=C(O)CCc1ccc(NCc2cccc(Oc3ccccc3)c2)cc1 [GW9508] | 0.0052 | – | logD (physchem [1]; pH 7.4, LogD7.4): 2.1
O=C(NCCc1ccc(Cl)cc1)c1cccnc1 | 0.0854 | – | –
N=C(N)c1ccc2nc(-c3cccc(-c4ccccc4)c3O)[nH]c2c1 | 0.0139 | – | –
O=C(CC1CCCCCC1)Nc1cccc2c(=O)n([C@H]3CCNC3)ccc12 | 0.232 | – | logD (physchem [1]; pH 7.4, LogD7.4): 1.15
N=C(N)c1ccc2[nH]c(-c3n[nH]c(-c4ccccc4)c3O)nc2c1 | 0.119 | – | –
Cc1nccnc1-c1ccc(CC(=O)N[C@H](C)c2ccc(OCC(F)(F)F)cn2)cc1 | 0.17 | – | –
C[C@@](O)(C(=O)Nc1ccc(S(C)(=O)=O)cc1Cl)C(F)(F)F | 0.16 | – | logD (physchem [1]; pH 7.4, LogD7.4): 2.08
O=C(O)c1cc(O)cc(O)c1 [3,5-DIHYDROXYBENZOIC ACID] | 0.824 | – | –
CC1=C(CC(=O)NCc2ccc(C(=N)N)cc2)C(=O)N(NS(=O)(=O)c2c(C)cccc2Cl)CC1 | 0.54 | – | –
